Source: patent publication US10118916B2, “Modulators of cystic fibrosis transmembrane conductance regulator protein” (AbbVie S.à.r.l., priority 2016, dated 2018)

Molecular target: T1, F508delCFTR (Homo sapiens, UniProt P13569, DEL508-508)
T1 construct: expressed in transfected cells; host or cells: CFBE41o- (human lung derived epithelial cell line), doxycycline-inducible
Experiment: Cell Surface Expression-Horse Radish Peroxidase (CSE-HRP) assay
Assay type: cell-based
Conditions: CFBE41o-F508delCFTR-HRP cells; for EC50: F508delCFTR cell surface expression, luminescence, 18-24 hours at 33° C., highest concentration 20 μM; for Maximum % activity: maximum at any tested concentration, normalized to on-plate positive control (3 μM)
Source text: Cell Surface Expression-Horse Radish Peroxidase (CSE-HRP) Assay:
A cellular assay for measuring the F508delCFTR cell surface expression after correction with test compounds was developed in human lung derived epithelial cell line (CFBE41o-) (Veit G et al, (2012) Mol Biol Cell. 23(21): 4188-4202). This was achieved by expressing the F508delCFTR mutation along with a horseradish peroxidase (HRP) in the fourth exofacial loop and then measuring the HRP activity using luminescence readout from these cells, CFBE41o-F508delCFTR-HRP, that were incubated overnight with the test corrector compounds. Briefly, for this primary assay, the CFBE41o-F508delCFTR-HRP cells were plated in 384-well plates (Greiner Bio-one; Cat 781080) at 4,000 cells/well along with 0.5 μg/mL doxycycline to induce the F508delCFTR-HRP expression and further incubated at 37° C., 5% CO2 for 72 hours. The test compounds were then added at the required concentrations and further incubated for 18-24 hours at 33° C. The highest concentration tested was 20 μM with an 8-point concentration response curve using a 3-fold dilution. Three replicate plates were run to determine one EC50. All plates contained negative controls (dimethyl sulfoxide, DMSO) and positive controls (3 μM of 3-[(2R,4R)-4-({[1-(2,2-difluoro-1,3-benzodioxol-5-yl)cyclopropyl]carbonyl}amino)-7-methoxy-3,4-dihydro-2H-chromen-2-yl]benzoic acid) as well as on-plate concentration response of the positive control. Post incubation, the plates were washed 5× times with Dulbecco's phosphate buffered saline (DPBS), followed by the addition of the HRP substrate, luminol (50 μL), and measuring the HRP activity using luminescence readout on EnVision® Multilabel Plate Reader (Perkin Elmer; product number 2104-0010). The raw counts from the experiment are analyzed using Accelrys® Assay Explorer v3.3.
Z′ greater than 0.5 was used as passing quality control criteria for the plates.
The Z′ is defined as: 1−[3*SDPositive Control+3*SDNegative Control/Absolute(MeanPositive Control−MeanNegative Control)] wherein “SD” is standard deviation.
The % activity measured at each of the 8 test concentrations of the test compound was normalized to the on-plate positive control using the following formula: % activity=[(test compound response−DMSO response)/(positive control response−DMSO response)]*100
The maximum % activity achieved for the test compound at any tested concentration is presented in Table 1 along with the EC50 calculated using the following general sigmoidal curve with variable Hill slope equation (described as Model 42 in the Accelrys® Assay Explorer v3.3 software): y=(a−d)/(1+(x/c)^b)+d
General sigmoidal curve with concentration, response, top, bottom, EC50 and Hill slope.
This model describes a sigmoidal curve with an adjustable baseline, a. The equation can be used to fit curves where response is either increasing or decreasing with respect to the independent variable, “x”. • “x” is a concentration of drug under test. • “y” is the response. • “a” is the maximum response, and “d” is the minimum response • “c” is the inflection point (EC50) for the curve. That is, “y” is halfway between the lower and upper asymptotes when x=c. • “b” is the slope-factor or Hill coefficient. The sign of b is positive when the response increases with increasing dose and is negative when the response decreases with increasing dose (inhibition).

T1 sequence (P13569 with tags, fused parts or gaps DEL508-508): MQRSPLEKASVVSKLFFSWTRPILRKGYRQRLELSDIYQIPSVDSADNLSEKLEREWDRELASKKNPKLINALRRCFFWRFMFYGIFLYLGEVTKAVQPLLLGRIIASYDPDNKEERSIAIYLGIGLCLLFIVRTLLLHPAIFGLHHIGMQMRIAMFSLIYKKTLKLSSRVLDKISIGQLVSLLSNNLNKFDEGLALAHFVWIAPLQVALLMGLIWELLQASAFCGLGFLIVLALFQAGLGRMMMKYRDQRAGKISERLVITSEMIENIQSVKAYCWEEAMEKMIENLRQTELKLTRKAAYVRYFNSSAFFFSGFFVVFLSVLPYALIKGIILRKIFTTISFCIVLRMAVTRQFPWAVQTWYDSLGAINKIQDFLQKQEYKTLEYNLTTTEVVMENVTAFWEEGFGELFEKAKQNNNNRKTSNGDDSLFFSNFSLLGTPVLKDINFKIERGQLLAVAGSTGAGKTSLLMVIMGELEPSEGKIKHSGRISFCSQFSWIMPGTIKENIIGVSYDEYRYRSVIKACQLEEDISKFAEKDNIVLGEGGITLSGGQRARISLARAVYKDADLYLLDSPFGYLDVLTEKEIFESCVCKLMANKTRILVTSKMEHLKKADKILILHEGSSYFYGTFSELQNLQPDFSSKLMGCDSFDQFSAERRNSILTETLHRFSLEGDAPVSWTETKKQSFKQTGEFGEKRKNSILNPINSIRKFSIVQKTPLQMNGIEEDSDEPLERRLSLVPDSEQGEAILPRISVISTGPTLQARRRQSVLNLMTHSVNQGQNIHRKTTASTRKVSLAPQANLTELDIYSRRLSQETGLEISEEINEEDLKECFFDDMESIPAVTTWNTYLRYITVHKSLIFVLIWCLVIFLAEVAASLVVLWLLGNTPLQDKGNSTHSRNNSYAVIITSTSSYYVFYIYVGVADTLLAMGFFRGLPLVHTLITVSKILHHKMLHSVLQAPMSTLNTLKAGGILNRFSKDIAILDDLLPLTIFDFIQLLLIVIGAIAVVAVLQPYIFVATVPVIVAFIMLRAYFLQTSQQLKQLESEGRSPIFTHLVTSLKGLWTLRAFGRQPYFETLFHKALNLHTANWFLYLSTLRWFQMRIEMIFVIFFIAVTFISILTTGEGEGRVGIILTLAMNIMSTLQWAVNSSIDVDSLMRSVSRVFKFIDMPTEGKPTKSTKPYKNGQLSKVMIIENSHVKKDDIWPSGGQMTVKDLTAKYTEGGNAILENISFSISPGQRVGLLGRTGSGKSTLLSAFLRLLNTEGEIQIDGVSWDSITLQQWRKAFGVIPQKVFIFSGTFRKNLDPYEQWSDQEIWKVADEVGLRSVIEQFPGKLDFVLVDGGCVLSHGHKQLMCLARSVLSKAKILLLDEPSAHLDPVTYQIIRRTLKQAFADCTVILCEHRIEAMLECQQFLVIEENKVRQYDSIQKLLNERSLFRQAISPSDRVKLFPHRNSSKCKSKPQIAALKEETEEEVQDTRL

Row | SMILES | EC50 | Maximum % activity
1 | COc1ccc2c(c1)OC(c1ccc(OC)c(OC)c1)CC2NC(=O)C1(c2ccc(F)cc2)CC1 (stereo not drawn) [Example 20, N-[2-(3,4-dimethoxyphenyl)-7-methoxy-3,4-dihydro-2H-1-benzopyran-4-yl]-1-(4-fluorophenyl)cyclopropane-1-carb oxamide] | 890 nM | 51.1%
2 | COc1ccc2c(c1)OC(c1ccc(OC)c(OC)c1)CC2NC(=O)C1(c2ccc(Cl)cc2)CC1 (stereo not drawn) [Example 21, 1-(4-chlorophenyl)-N-[2-(3,4-dimethoxyphenyl)-7-methoxy-3,4-dihydro-2H-1-benzopyran-4-yl]cyclopropane-1-carboxamide] | 1140 nM | 77.8%
3 | COc1ccc2c(c1)OC(c1ccc(OC)c(OC)c1)CC2NC(=O)C(C)(C)c1ccc(Cl)cc1 (stereo not drawn) [Example 22, 2-(4-chlorophenyl)-N-[2-(3,4-dimethoxyphenyl)-7-methoxy-3,4-dihydro-2H-1-benzopyran-4-yl]-2-methylpropanamide] | 990 nM | 56.6%
4 | COc1ccc(C(C)(C)C(=O)NC2CC(c3ccc(OC)c(OC)c3)Oc3cc(OC)ccc32)cc1 (stereo not drawn) [Example 23, N-[2-(3,4-dimethoxyphenyl)-7-methoxy-3,4-dihydro-2H-1-benzopyran-4-yl]-2-(4-methoxyphenyl)-2-methylpropanamide] | 230 nM | 54.0%
5 | COc1ccc(C(C)(C)C(=O)N[C@H]2C[C@H](c3cccc(C(=O)O)c3)Oc3cc(OC)ccc32)cc1 [Example 24, 3-{(2R,4S)-7-methoxy-4-[2-(4-methoxyphenyl)-2-methylpropanamido]-3,4-dihydro-2H-1-benzopyran-2-yl}benzoic acid] | 1160 nM | 38.3%
6 | COc1ccc(C(C)(C)C(=O)N[C@@H]2C[C@H](c3cccc(C(=O)O)c3)Oc3cc(OC)ccc32)cc1 [Example 25, 3-{(2R,4R)-7-methoxy-4-[2-(4-methoxyphenyl)-2-methylpropanamido]-3,4-dihydro-2H-1-benzopyran-2-yl}benzoic acid] | 230 nM | 39.5%
7 | C[C@]1(C(=O)N[C@@H]2C[C@H](c3cccc(C(=O)O)c3)Oc3ccccc32)Cc2cc(Cl)ccc2O1 [Example 26, 3-[(2R,4R)-4-{[(2R)-5-chloro-2-methyl-2,3-dihydro-1-benzofuran-2-carbonyl]amino}-3,4-dihydro-2H-1-benzopyran-2-yl]benzoic acid] | > 20000 nM | 1.6%
8 | C[C@@]1(C(=O)N[C@@H]2C[C@H](c3cccc(C(=O)O)c3)Oc3ccccc32)Cc2cc(Cl)ccc2O1 [Example 27, 3-[(2R,4R)-4-{[(2S)-5-chloro-2-methyl-2,3-dihydro-1-benzofuran-2-carbonyl]amino}-3,4-dihydro-2H-1-benzopyran-2-yl]benzoic acid] | > 20000 nM | 7.9%
9 | COC(=O)c1cccc([C@H]2C[C@@H](NC(=O)[C@]3(C)CCc4cc(OC)ccc43)c3ccccc3O2)c1 [Example 28, methyl 3-[(2R,4R)-4-{[(1R)-5-methoxy-1-methyl-2,3-dihydro-1H-indene-1-carbonyl]amino}-3,4-dihydro-2H-1-benzopyran-2-yl]benzoate] | 2490 nM | 21.2%
10 | COC(=O)c1cccc([C@H]2C[C@@H](NC(=O)[C@]3(C)CCc4cc(OC)ccc43)c3ccc(OC)cc3O2)c1 [Example 29, methyl 3-[(2R,4R)-7-methoxy-4-{[(1R)-5-methoxy-1-methyl-2,3-dihydro-1H-indene-1-carbonyl]amino}-3,4-dihydro-2H-1-benzopyran-2-yl]benzoate] | 1440 nM | 37.8%

Other lines, results leading:

Row | EC50 | Maximum % activity | SMILES
11 | 960 nM | 48.4% | COC(=O)c1cccc([C@H]2C[C@@H](NC(=O)[C@@]3(C)CCc4cc(OC)ccc43)c3ccccc3O2)c1 [Example 30, methyl 3-[(2R,4R)-4-{[(1S)-5-methoxy-1-methyl-2,3-dihydro-1H-indene-1-carbonyl]amino}-3,4-dihydro-2H-1-benzopyran-2-yl]benzoate]
12 | 400 nM | 63.6% | COC(=O)c1cccc([C@H]2C[C@@H](NC(=O)[C@@]3(C)CCc4cc(OC)ccc43)c3ccc(OC)cc3O2)c1 [Example 31, methyl 3-[(2R,4R)-7-methoxy-4-{[(1S)-5-methoxy-1-methyl-2,3-dihydro-1H-indene-1-carbonyl]amino}-3,4-dihydro-2H-1-benzopyran-2-yl]benzoate]
13 | 1210 nM | 20.4% | COc1ccc2c(c1)CC[C@@]2(C)C(=O)N[C@@H]1C[C@H](c2cccc(C(=O)O)c2)Oc2ccccc21 [Example 32, 3-[(2R,4R)-4-{[(1R)-5-methoxy-1-methyl-2,3-dihydro-1H-indene-1-carbonyl]amino}-3,4-dihydro-2H-1-benzopyran-2-yl]benzoic acid]
14 | 270 nM | 25.9% | COc1ccc2c(c1)CC[C@@]2(C)C(=O)N[C@@H]1C[C@H](c2cccc(C(=O)O)c2)Oc2cc(OC)ccc21 [Example 33, 3-[(2R,4R)-7-methoxy-4-{[(1R)-5-methoxy-1-methyl-2,3-dihydro-1H-indene-1-carbonyl]amino}-3,4-dihydro-2H-1-benzopyran-2-yl]benzoic acid]
15 | 410 nM | 52.6% | COc1ccc2c(c1)CC[C@]2(C)C(=O)N[C@@H]1C[C@H](c2cccc(C(=O)O)c2)Oc2ccccc21 [Example 34, 3-[(2R,4R)-4-{[(1S)-5-methoxy-1-methyl-2,3-dihydro-1H-indene-1-carbonyl]amino}-3,4-dihydro-2H-1-benzopyran-2-yl]benzoic acid]
16 | 200 nM | 57.5% | COc1ccc2c(c1)CC[C@]2(C)C(=O)N[C@@H]1C[C@H](c2cccc(C(=O)O)c2)Oc2cc(OC)ccc21 [Example 35, 3-[(2R,4R)-7-methoxy-4-{[(1S)-5-methoxy-1-methyl-2,3-dihydro-1H-indene-1-carbonyl]amino}-3,4-dihydro-2H-1-benzopyran-2-yl]benzoic acid]
17 | 670 nM | 31.4% | COc1ccc2c(c1)O[C@@H](c1cccc(C(=O)O)c1)C[C@H]2NC(=O)C1(C)CCc2cc(Cl)ccc21 (stereo partly drawn) [Example 36, 3-{(2R,4R)-4-[(5-chloro-1-methyl-2,3-dihydro-1H-indene-1-carbonyl)amino]-7-methoxy-3,4-dihydro-2H-1-benzopyran-2-yl}benzoic acid]
18 | > 20000 nM | 6.1% | COc1ccc2c(c1)O[C@@H](c1cccc(C(=O)O)c1)C[C@H]2NC(=O)C(C)(C)c1ccc(OCC(C)C)cc1 [Example 37, 3-[(2R,4R)-7-methoxy-4-{2-methyl-2-[4-(2-methylpropoxy)phenyl]propanamido}-3,4-dihydro-2H-1-benzopyran-2-yl]benzoic acid]
19 | 870 nM | 41.7% | COc1ccc2c(c1)O[C@@H](c1cccc(C(=O)O)c1)C[C@H]2NC(=O)C(C)(C)c1ccc2c(c1)OCCO2 [Example 39, 3-{(2R,4R)-4-[2-(2,3-dihydro-1,4-benzodioxin-6-yl)-2-methylpropanamido]-7-methoxy-3,4-dihydro-2H-1-benzopyran-2-yl}benzoic acid]
20 | 1700 nM | 81.0% | COc1ccc2c(c1)O[C@@H](c1cccc(C(=O)O)c1)C[C@H]2NC(=O)C(C)(C)c1ccc(OC(F)(F)F)cc1 [Example 40, 3-[(2R,4R)-7-methoxy-4-{2-methyl-2-[4-(trifluoromethoxy)phenyl]propanamido}-3,4-dihydro-2H-1-benzopyran-2-yl]benzoic acid]
21 | 1670 nM | 62.2% | COc1ccc2c(c1)O[C@@H](c1cccc(C(=O)O)c1)C[C@H]2NC(=O)C1(c2ccc(OC(F)(F)F)cc2)CC1 [Example 41, 3-[(2R,4R)-7-methoxy-4-({1-[4-(trifluoromethoxy)phenyl]cyclopropane-1-carbonyl}amino)-3,4-dihydro-2H-1-benzopyran-2-yl]benzoic acid]
